Like-named read-outs stand apart in the source and are kept apart here.
What was measured:
Type in all cases: in vivo
Spodoptera littoralis = Spodoptera littoralis (Egyptian cotton leaf worm) leaf disc test; settings: foliar, 72 h, application rate 200 ppm, cotton leaf discs sprayed, L1 larvae, 3 days after infestation, read-out: control (at least one of mortality, anti-feedant effect, growth inhibition)
Experimental: Spodoptera littoralis (Egyptian Cotton Leaf Worm)
Cotton leaf discs were placed on agar in 24-well microtiter plates and sprayed with aqueous test solutions prepared from 10′000 ppm DMSO stock solutions. After drying the leaf discs were infested with five L1 larvae. The samples were assessed for mortality, anti-feedant effect, and growth inhibition in comparison to untreated samples 3 days after infestation. Control of Spodoptera littoralis by a test sample is when at least one of mortality, anti-feedant effect, and growth inhibition is higher than the untreated sample.

Plutella xylostella = Plutella xylostella (diamond back moth) artificial diet test; settings: 120 h, read-out: control (mortality and growth inhibition)
Experimental: Plutella xylostella (Diamond Back Moth):
(§1) 24-well microtiter plates with artificial diet were treated with aqueous test solutions prepared from 10′000 ppm DMSO stock solutions by pipetting. After drying, the plates were infested with L2 larvae (10 to 15 per well). The samples were assessed for mortality and growth inhibition in comparison to untreated samples 5 days after infestation.

Diabrotica Balteata = assay: Diabrotica balteata (corn root worm) maize sprout test; settings: 96 h, read-out: control (mortality and growth inhibition)
Experimental: Diabrotica Balteata, (Corn Root Worm)
as §1, with “Maize sprouts, placed on an agar layer in 24-well” for “24-well”, “plates” for “plates with artificial diet”, “spraying.” for “pipetting.”, “(6” for “(10”, “10” for “15”, “4” for “5”

Thrips tabaci = Thrips tabaci (onion thrips) leaf disc test; settings: foliar, 144 h, read-out: control (mortality)
Experimental: Thrips tabaci (Onion Thrips):
(§2) Sunflower leaf discs were placed on agar in 24-well microtiter plates and sprayed with aqueous test solutions prepared from 10′000 ppm DMSO stock solutions. After drying the leaf discs were infested with a thrips population of mixed ages. The samples were assessed for mortality 6 days after infestation.

Euschistus heros = Euschistus heros (neotropical brown stink bug) soybean leaf test; settings: 120 h, read-out: control (mortality and growth inhibition)
Experimental: Euschistus heros (Neotropical Brown Stink Bug):
Soybean leaves on agar in 24-well microtiter plates were sprayed with aqueous test solutions prepared from 10′000 ppm DMSO stock solutions. After drying the leaves were infested with N2 nymphs. The samples were assessed for mortality and growth inhibition in comparison to untreated samples 5 days after infestation.

Myzus persicae = Myzus persicae (green peach aphid) leaf disc test; settings: foliar, 144 h, application rate 200 ppm, sunflower leaf discs sprayed, mixed ages, 6 DAT, read-out: control (mortality)
Experimental: Myzus persicae (Green Peach Aphid):
Sunflower leaf discs were placed on agar in a 24-well microtiter plate and sprayed with test solutions at an application rate of 200 ppm. After drying, the leaf discs were infested with an aphid population of mixed ages. After an incubation period of 6 DAT, samples were checked for mortality.

Tetranychus urticae = Tetranychus urticae (two-spotted spider mite) leaf disc test; settings: foliar, 192 h, application rate 200 ppm, bean leaf discs sprayed, 8 days after infestation, read-out: control (mortality on mixed population, mobile stages)
Experimental: Tetranychus urticae (Two-Spotted Spider Mite):
as §2, with “Bean” for “Sunflower”, “discs” for “discs were placed”, “were” for “and”, “mite” for “thrips”, “on mixed population (mobile stages) 8” for “6”

[1] = application rate 200 ppm, artificial diet, L2 larvae, 5 days after infestation
[2] = application rate 200 ppm, maize sprouts sprayed, L2 larvae, 4 days after infestation
[3] = application rate 200 ppm, soybean leaves sprayed, N2 nymphs, 5 days after infestation

CCOCN(C(=O)c1cc(-c2cnn(-c3c(C(F)(F)F)c(OS(=O)(=O)C(F)(C(F)(F)F)C(F)(F)F)nn3C)c2)ccc1Cl)C1(C#N)CC1 [Compound 47, [5-[4-[4-chloro-3-[(1-cyanocyclopropyl)-(ethoxymethyl)carbamoyl]phenyl]pyrazol-1-yl]-1-methyl-4-(trifluoromethyl)pyrazol-3-yl] 1,1,1,2,3,3,3-heptafluoropropane-2-sulfonate]
≥ 80%: percent control (mortality, anti-feedant effect or growth inhibition) at 200 ppm (Spodoptera littoralis) | mortality at 200 ppm (Plutella xylostella; [1]) | mortality at 200 ppm (Diabrotica Balteata; [2]) | mortality at 200 ppm (Thrips tabaci; application rate 200 ppm, sunflower leaf discs sprayed, mixed ages, 6 days after infestation) | mortality at 200 ppm (Euschistus heros; [3]) | mortality at 200 ppm (Myzus persicae)

CCN(C(=O)c1cc(-c2cc(-c3c(C(F)(F)F)c(OS(=O)(=O)C(F)(C(F)(F)F)C(F)(F)F)nn3C)no2)ccc1Cl)C1(C#N)CC1 [Compound 38, [5-[5-[4-chloro-3-[(1-cyanocyclopropyl)-ethyl-carbamoyl]phenyl]isoxazol-3-yl]-1-methyl-4-(trifluoromethyl)pyrazol-3-yl] 1,1,1,2,3,3,3-heptafluoropropane-2-sulfonate]
≥ 80%: percent control (mortality, anti-feedant effect or growth inhibition) at 200 ppm (Spodoptera littoralis) | mortality at 200 ppm (Plutella xylostella; [1]) | mortality at 200 ppm (Tetranychus urticae) | mortality at 200 ppm (Euschistus heros; [3]) | mortality at 200 ppm (Myzus persicae)

Cn1nc(OS(=O)(=O)C(F)(F)C(F)(F)F)c(C(F)(F)F)c1-n1cc(-c2ccc(Cl)c(C(=O)NC3(C#N)CC3)c2)cn1 [Compound 1, [5-[4-[4-chloro-3-[(1-cyanocyclopropyl)carbamoyl]phenyl]pyrazol-1-yl]-1-methyl-4-(trifluoromethyl)pyrazol-3-yl] 1,1,2,2,2-pentafluoroethanesulfonate]
≥ 80%: percent control (mortality, anti-feedant effect or growth inhibition) at 200 ppm (Spodoptera littoralis) | mortality at 200 ppm (Plutella xylostella; [1]) | mortality at 200 ppm (Diabrotica Balteata; [2]) | mortality at 200 ppm (Tetranychus urticae) | mortality at 200 ppm (Euschistus heros; [3])

Cn1nc(OS(=O)(=O)C(F)(C(F)(F)F)C(F)(F)F)c(C(F)(F)F)c1-n1cc(-c2ccc(Cl)c(C(=O)NC3(CC#N)CC3)c2)cn1 [Compound 68, [5-[4-[4-chloro-3-[[1-(cyanomethyl)cyclopropyl]carbamoyl]phenyl]pyrazol-1-yl]-1-methyl-4-(trifluoromethyl)pyrazol-3-yl] 1,1,1,2,3,3,3-heptafluoropropane-2-sulfonate]
≥ 80%: percent control (mortality, anti-feedant effect or growth inhibition) at 200 ppm (Spodoptera littoralis) | mortality at 200 ppm (Plutella xylostella; [1]) | mortality at 200 ppm (Tetranychus urticae) | mortality at 200 ppm (Euschistus heros; [3])

Cn1nc(OS(=O)(=O)C(F)(C(F)(F)F)C(F)(F)F)c(C(F)(F)F)c1-n1cc(-c2ccc(Cl)c(C(=O)NC3(C(F)(F)F)CC3)c2)cn1 [Compound 65, [5-[4-[4-chloro-3-[[1-(trifluoromethyl)cyclopropyl]carbamoyl]phenyl]pyrazol-1-yl]-1-methyl-4-(trifluoromethyl)pyrazol-3-yl] 1,1,1,2,3,3,3-heptafluoropropane-2-sulfonate]
≥ 80%: percent control (mortality, anti-feedant effect or growth inhibition) at 200 ppm (Spodoptera littoralis) | mortality at 200 ppm (Plutella xylostella; [1]) | mortality at 200 ppm (Tetranychus urticae) | mortality at 200 ppm (Euschistus heros; [3])

CCN(C(=O)c1cc(-c2cnn(-c3c(C(F)(F)F)c(OS(=O)(=O)C(F)(F)C(F)(F)C(F)(F)C(F)(F)F)nn3C)c2)cnc1Cl)C1(C#N)CC1 [Compound 32, [5-[4-[6-chloro-5-[(1-cyanocyclopropyl)-ethyl-carbamoyl]-3-pyridyl]pyrazol-1-yl]-1-methyl-4-(trifluoromethyl)pyrazol-3-yl] 1,1,2,2,3,3,4,4,4-nonafluorobutane-1-sulfonate]
≥ 80%: percent control (mortality, anti-feedant effect or growth inhibition) at 200 ppm (Spodoptera littoralis) | mortality at 200 ppm (Plutella xylostella) | mortality at 200 ppm (Diabrotica Balteata) | mortality at 200 ppm (Thrips tabaci) | mortality at 200 ppm (Euschistus heros)

Source: US11071300B2, “Pesticidally active pyrazole derivatives” (SYNGENTA PARTICIPATIONS AG, priority 2017, dated 2021)
